{"source": "PubChem BioAssay AID720588", "about": "(Broad Institute, 2013)", "note": "The source made the active and inactive calls.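 Rule for the calls: active = fitted curve falls past a set limit of signal loss at no more than twice the top dose; inconclusive = flat fit between 30 and 70% signal loss, or poor fit; inactive = signal rise, flat within 30%, or crossing too high.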"}
{"test": "ATP-based viability loss in HEK293T cells – cell-based, CellTiter-Glo luminescence, cherry-pick, set 3, cytotoxicity control, dose response (AID 720588)", "conditions": "HEK293T viability, CellTiter-Glo ATP luminescence, 72 h; at 23.5 µM (top of the series)"}
{"smiles": "COC(=O)C[C@@H]1CC[C@@H]2[C@@H](COc3ccc(NC(=O)Nc4ccccc4C)cc3C(=O)N2C)O1", "activity change, negative = cytotoxicity": "19.2% (inactive)"}
{"test": "ATP-based viability loss in HEK293T cells – cell-based, CellTiter-Glo luminescence, cherry-pick, set 3, cytotoxicity control, dose response (AID 720588)", "conditions": "HEK293T viability, CellTiter-Glo ATP luminescence, 72 h; at 26 µM (top of the series)"}
{"smiles": "O=C(CCCCl)Nc1nc(-c2ccc3c(c2)OCCO3)cs1", "activity change, negative = cytotoxicity": "13.6% (inactive)"}
{"smiles": "COc1cc(C(c2c(C)[nH][nH]c2=O)c2c(C)[nH][nH]c2=O)ccc1OC(C)C", "activity change, negative = cytotoxicity": "-1.41% (inactive)"}
{"smiles": "CN(c1ccc(NC(=O)CCc2c[nH]c3ccccc23)cc1)c1ccccn1", "activity change, negative = cytotoxicity": "-4.8% (inactive)"}
{"smiles": "CC(=O)Nc1cccc(-c2ccnc3c2CC(C)(C(=O)NCc2ccc(N(C)C)cc2)O3)c1", "note": "(stereo not given)", "activity change, negative = cytotoxicity": "-10.9% (inactive)"}
{"smiles": "C[C@@H]1CN([C@@H](C)CO)S(=O)(=O)c2ccc(C#Cc3ccncc3)cc2O[C@H]1CN(C)C(=O)C1CCOCC1", "activity change, negative = cytotoxicity": "19.2% (inactive)"}
{"smiles": "O=C(O)c1ccccc1C(=O)Nc1ccc(Oc2ccc3ccccc3c2)cc1", "activity change, negative = cytotoxicity": "-15.8% (inactive)"}
{"smiles": "CC(C)(C)c1ccc(Oc2ccc(NC(=O)c3ccccc3C(=O)O)cn2)cc1", "activity change, negative = cytotoxicity": "16.5% (inactive)"}
{"smiles": "N#C[C@H]1[C@H](c2ccc(C#Cc3ccccc3F)cc2)[C@@H](CO)N1C(=O)C1CCOCC1", "activity change, negative = cytotoxicity": "-4.64% (inactive)"}
{"smiles": "Nc1ccn([C@@H]2O[C@H](CO)[C@@H](O)C2O)c(=O)n1", "note": "(stereo not given in full)", "activity change, negative = cytotoxicity": "-12.5% (inactive)"}
{"smiles": "O=c1c2ccccc2oc2cc(C#CC3(O)CCCCC3)ccc12", "activity change, negative = cytotoxicity": "15.7% (inactive)"}
{"smiles": "C/C(=N\\OCc1cccc(C(=O)O)c1)c1ccc(Cl)cc1", "activity change, negative = cytotoxicity": "-6.62% (inactive)"}
{"smiles": "C/C(=N\\N(c1ccccc1)c1ccccc1)c1ccco1", "activity change, negative = cytotoxicity": "-14.9% (inactive)"}
{"smiles": "C[C@H]1CN([C@@H](C)CO)C(=O)Cc2cc(NC(=O)C3CC3)ccc2O[C@H]1CN(C)S(=O)(=O)c1ccc(Cl)cc1", "activity change, negative = cytotoxicity": "-9.99% (inactive)"}
{"smiles": "C[C@@H]1CN([C@H](C)CO)S(=O)(=O)c2ccc(C#Cc3ccncc3)cc2O[C@@H]1CN(C)C(=O)Nc1ccc2c(c1)OCO2", "activity change, negative = cytotoxicity": "-4.95% (inactive)"}
{"smiles": "CC(C)c1oc(=O)cc2c1[C@@H](O)[C@H]1OC(=O)[C@@]3(C)CC[C@@H](O)[C@@]2(C)C13", "note": "(stereo not given in full)", "activity change, negative = cytotoxicity": "-27.6% (inactive)"}
{"smiles": "CN(C)c1ccc2c(c1)[C@@H]1C[C@@H](CC(=O)NCc3ccc(Oc4ccccc4)cc3)O[C@H](CO)[C@@H]1O2", "activity change, negative = cytotoxicity": "-15.8% (inactive)"}
{"smiles": "O=C(CNC(c1ccccc1)c1ccccc1)Nc1ccccc1-c1ccccc1", "activity change, negative = cytotoxicity": "-23.7% (inactive)"}
{"smiles": "CC(C)(C)c1ccc(Cn2c(=O)cnc3ccccc32)cc1", "activity change, negative = cytotoxicity": "-33.1% (inactive)"}
{"smiles": "COc1ccc(C(C)(O)c2nc(-c3cccc(F)c3)cs2)cc1", "note": "(stereo not given)", "activity change, negative = cytotoxicity": "-24.1% (inactive)"}
{"smiles": "COc1ccc2oc(-c3ccccc3)cc(=O)c2c1", "activity change, negative = cytotoxicity": "-22.5% (inactive)"}
{"smiles": "COCCOC(=O)N1C(=O)[C@@]2(c3cc(C#CCC(C(=O)OC)C(=O)OC)ccc31)[C@H](c1ccccc1OCCO)N1[C@H](c3ccccc3)[C@H](c3ccccc3)OC(=O)[C@H]1[C@@H]2C(=O)N1CCN(c2ncccn2)CC1", "activity change, negative = cytotoxicity": "28.9% (inactive)"}
{"smiles": "Nc1ncn([C@@H]2O[C@H](CO)[C@@H](O)[C@H]2O)c(=O)n1", "activity change, negative = cytotoxicity": "4.13% (inactive)"}
{"smiles": "COc1ccc(S(=O)(=O)N2CCCc3nc(-c4ccc(F)cc4)ccc32)cc1", "activity change, negative = cytotoxicity": "-5.94% (inactive)"}
{"smiles": "O=c1[nH]c(=O)n(C2C[C@H](O)[C@@H](CO)O2)cc1C(F)(F)F", "note": "(stereo not given in full)", "activity change, negative = cytotoxicity": "-9.97% (inactive)"}
{"smiles": "COC(=O)C[C@@H]1CC[C@@H]2[C@@H](COc3ccc(NC(=O)Nc4cccc(F)c4)cc3C(=O)N2C)O1", "activity change, negative = cytotoxicity": "-28.1% (inactive)"}
{"smiles": "COc1ccc(-c2sc3ccccc3c2-c2ccc(OCCN3CCCCC3)cc2)cc1", "activity change, negative = cytotoxicity": "-16% (inactive)"}
{"smiles": "CCOC(=O)C1CCCCN1C(=O)CCc1c(C)nc2cc(-c3ccccc3)nn2c1C", "note": "(stereo not given)", "activity change, negative = cytotoxicity": "-10.8% (inactive)"}
{"smiles": "Cc1cc(-c2nc3ccccc3s2)ccc1N", "activity change, negative = cytotoxicity": "-28% (inactive)"}
{"smiles": "CN(C)c1ccc(N=Nc2ccc(C(=O)O)cc2)cc1", "activity change, negative = cytotoxicity": "-1.83% (inactive)"}
{"smiles": "Cc1noc(C)c1NC(=O)Nc1ccc2c(c1)CC(=O)N([C@@H](C)CO)C[C@@H](C)[C@@H](CN(C)Cc1ccc(Cl)c(Cl)c1)O2", "activity change, negative = cytotoxicity": "61.4% (inactive)"}
{"smiles": "COC(=O)C[C@@H]1CC[C@@H]2[C@H](COc3ccc(NC(=O)c4ccccc4)cc3C(=O)N2C)O1", "activity change, negative = cytotoxicity": "41.2% (inactive)"}
{"smiles": "CCN1CCN(/C=N/c2nc3c(s2)CCCC3)CC1", "activity change, negative = cytotoxicity": "-6.91% (inactive)"}
{"smiles": "Cc1ccc(/C=C2\\SC(=S)N(CCC(=O)NNC(=O)c3ccccc3O)C2=O)cc1", "activity change, negative = cytotoxicity": "24.1% (inactive)"}
{"smiles": "COC(=O)COc1ccc(-c2nccc(-c3ccccn3)n2)cc1", "activity change, negative = cytotoxicity": "19.3% (inactive)"}
{"smiles": "C[C@H](CO)N1C[C@H](C)[C@H](CN(C)Cc2ccc(C(=O)Nc3ccccc3N)cc2)Oc2ccc(N(C)C)cc2C1=O", "activity change, negative = cytotoxicity": "-25.7% (inactive)"}
{"smiles": "COc1ccc(Nc2oc(COc3ccccc3OC)nc2C#N)cc1", "activity change, negative = cytotoxicity": "-13.8% (inactive)"}
{"smiles": "Cc1ccc(C(C(=O)NCc2ccco2)N(C(=O)CNC(=O)c2cccs2)c2c(C)cc(C)cc2C)cc1", "note": "(stereo not given)", "activity change, negative = cytotoxicity": "-19.4% (inactive)"}
{"smiles": "Cc1ccc(S(=O)(=O)Nc2ccc3c(c2)C(=O)N([C@H](C)CO)C[C@@H](C)[C@@H](CN(C)Cc2ccc(C(=O)Nc4ccccc4N)cc2)O3)cc1", "activity change, negative = cytotoxicity": "-2.74% (inactive)"}
{"smiles": "Cc1ccc(S(=O)(=O)N(C)C[C@@H]2Oc3cc(C#Cc4ccncc4)ccc3S(=O)(=O)N([C@@H](C)CO)C[C@H]2C)cc1", "activity change, negative = cytotoxicity": "-17% (inactive)"}
{"smiles": "C[C@@H]1CN([C@@H](C)CO)C(=O)Cc2cc(N(C)C)ccc2O[C@@H]1CN(C)Cc1ccccc1", "activity change, negative = cytotoxicity": "-17.5% (inactive)"}
{"smiles": "CN1C/C(=C/c2ccsc2)C(=O)/C(=C/c2ccsc2)C1", "activity change, negative = cytotoxicity": "-30% (inactive)"}
{"smiles": "Cc1ccc(/C=C/C(=O)N2CCN(S(=O)(=O)c3c(C)c(C)cc(C)c3C)CC2)o1", "activity change, negative = cytotoxicity": "16.1% (inactive)"}
{"smiles": "CCCc1cc(=O)oc2c3c(c4c(c12)OC(C)(C)C=C4)OC(C)C(C)C3O", "note": "(stereo not given)", "activity change, negative = cytotoxicity": "-7.17% (inactive)"}
{"smiles": "CC(C)CN(C(=O)CN1CCOCC1)c1c(N)n(CC(C)C)c(=O)[nH]c1=O", "activity change, negative = cytotoxicity": "6.36% (inactive)"}
{"smiles": "COc1ccc(C(=O)Nc2cccc(C(=O)N/N=C/c3ccc(OC)cc3OC)c2)cc1", "activity change, negative = cytotoxicity": "-15.7% (inactive)"}
{"smiles": "CCc1ccc(/C=C2\\SC(=S)N(CCCC(=O)NCCCN3CCOCC3)C2=O)cc1", "activity change, negative = cytotoxicity": "-13.1% (inactive)"}
{"smiles": "COc1cc(C(=O)N2CCC(N3CCN(C)CC3)CC2)ccc1Nc1ncc2c(n1)N(C)c1ccccc1C(=O)N2C", "activity change, negative = cytotoxicity": "-1.13% (inactive)"}
{"smiles": "Brc1ccc(CSc2nnc(-c3ccco3)o2)cc1", "activity change, negative = cytotoxicity": "-18% (inactive)"}
{"smiles": "COc1ccc(CCC(C)NCC2CCCCC2)cc1", "note": "(stereo not given)", "activity change, negative = cytotoxicity": "4.78% (inactive)"}
{"smiles": "O=C(O)c1ccc2cc(-c3ccccc3)[nH]c2c1", "activity change, negative = cytotoxicity": "-28.5% (inactive)"}
{"smiles": "O=C(CNC(=O)Cc1ccccc1)N=Nc1c(O)n(Cc2ccc3c(c2)OCO3)c2ccccc12", "activity change, negative = cytotoxicity": "-23.2% (inactive)"}
{"smiles": "Cc1cc(C(=O)Nc2ccc3c(c2)C(=O)N(C)[C@@H]2CC[C@H](CC(=O)N[C@H](C)c4ccccc4)O[C@H]2CO3)no1", "activity change, negative = cytotoxicity": "8.37% (inactive)"}
{"smiles": "Cc1sc2nc(CN3CCC(C)CC3)nc(Cl)c2c1C", "activity change, negative = cytotoxicity": "5.44% (inactive)"}
{"smiles": "C=CCOc1ccccc1C(=O)/C=C1/C(=O)Nc2ccccc21", "activity change, negative = cytotoxicity": "-8.17% (inactive)"}
{"smiles": "C[C@@H]1CN([C@@H](C)CO)C(=O)Cc2cc(NC(=O)Cn3cnnn3)ccc2O[C@@H]1CN(C)Cc1ccc(Oc2ccccc2)cc1", "activity change, negative = cytotoxicity": "14.3% (inactive)"}
{"smiles": "COc1ccc(/C=C2\\SC(=S)N(CCCC(=O)NNC(=O)c3ccccc3O)C2=O)cc1", "activity change, negative = cytotoxicity": "13.3% (inactive)"}
{"smiles": "N#CC1=C(N)Oc2cc(N)ccc2C1c1cccc(F)c1", "note": "(stereo not given)", "activity change, negative = cytotoxicity": "-13.6% (inactive)"}
{"smiles": "CCn1c(C)cc(C(=O)CN2C(=O)c3ccccc3S2(=O)=O)c1C", "activity change, negative = cytotoxicity": "-4.24% (inactive)"}
{"smiles": "CCc1ccc(S(=O)(=O)c2ccc(-n3nc(C)cc3N)cc2)cc1", "activity change, negative = cytotoxicity": "-6.44% (inactive)"}
{"smiles": "C(=C\\c1ccc(C2[C@H]3CNC[C@@H]2N3Cc2ccccn2)cc1)/c1ccccc1", "note": "(stereo not given in full)", "activity change, negative = cytotoxicity": "39.5% (inactive)"}
{"smiles": "COc1cc2oc3cc(C#Cc4ccc(N)cc4)ccc3c(=O)c2cc1OC", "activity change, negative = cytotoxicity": "-4.88% (inactive)"}
{"smiles": "O=C1C(=O)N(Cc2cccs2)c2ccccc21", "activity change, negative = cytotoxicity": "-25.8% (inactive)"}
{"smiles": "COc1cc(-c2noc(C)c2C#Cc2nccn2C)cc(OC)c1OC", "activity change, negative = cytotoxicity": "-11% (inactive)"}
{"smiles": "Cc1ccc(-c2ccc3c(c2)O[C@@H](CN(C)C(=O)Nc2ccc(F)cc2)[C@H](C)CN([C@@H](C)CO)S3(=O)=O)cc1", "activity change, negative = cytotoxicity": "48.8% (inactive)"}
{"smiles": "CCOc1ccc(OCc2ccc(C(=O)NN=Cc3ccc[nH]3)cc2)cc1", "activity change, negative = cytotoxicity": "-39.9% (inactive)"}
{"smiles": "Cc1ccc(S(=O)(=O)N(C)C[C@H]2Oc3c(cccc3N(C)C)C(=O)N([C@@H](C)CO)C[C@@H]2C)cc1", "activity change, negative = cytotoxicity": "-21% (inactive)"}
{"smiles": "O=C(NCCc1ccccc1)c1ccccc1NC(=O)C1CCCO1", "note": "(stereo not given)", "activity change, negative = cytotoxicity": "5.83% (inactive)"}
{"smiles": "O=C(O)CN1C(=O)/C(=C\\c2ccccc2OCc2ccc(Cl)cc2Cl)SC1=S", "activity change, negative = cytotoxicity": "4.7% (inactive)"}
{"smiles": "N=c1ccn2c(n1)O[C@H]1[C@H](O)[C@@H](CO)O[C@H]12", "activity change, negative = cytotoxicity": "-7.04% (inactive)"}
{"smiles": "Oc1c(Cl)cc(Cl)c2cccnc12", "activity change, negative = cytotoxicity": "-45.5% (inactive)"}
{"smiles": "COC(=O)C[C@@H]1CC[C@@H]2[C@H](COc3ccc(NC(=O)c4ccc(F)cc4)cc3C(=O)N2C)O1", "activity change, negative = cytotoxicity": "76.4% (inactive)"}
{"smiles": "COc1ccc(Cl)cc1S(=O)(=O)Nc1ccc2c(c1)n(C)c(=O)n2C", "activity change, negative = cytotoxicity": "-13.3% (inactive)"}
{"smiles": "COC(=O)C[C@@H]1CC[C@@H]2[C@H](COc3ccc(NC(=O)c4ccc(C(F)(F)F)cc4)cc3C(=O)N2C)O1", "activity change, negative = cytotoxicity": "-2.65% (inactive)"}
{"smiles": "CCOc1ccccc1CNC(=O)c1ccc(Sc2ccc(Cl)cc2)c(NC(C)=O)c1", "activity change, negative = cytotoxicity": "-4.6% (inactive)"}
